Experimental findings from patent US20240025883A1, “PYRIMIDIN-2-YL SULFONAMIDE DERIVATIVES” (Hoffmann-La Roche Inc., priority 2021, published 2024) are described below.

For orientation: IC50 means the concentration needed to halve the response being measured. The low end stands for higher potency, the high end for lower potency.

For the assay, the target named is human GPR17 short isoform (Homo sapiens (Human), UniProt Q13304). Briefly: GPR17 cAMP assay (hGPR17 cAMP, antagonist mode against EC80 of MDL29,951). It is filed as cell-based. The settings on record: CHO-K1 cells stably expressing human GPR17 short isoform; EC80 of agonist MDL29,951; forskolin 15 μM. An outline of the steps:
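cAMP was read by competitive TR-FRET after a 30 min room-temperature stimulation: antagonists plus EC80 MDL29,951 and 0.5 mM IBMX, followed 5 min later by 15 μM forskolin. Cells were CHO-K1 with stable human GPR17 short isoform in HBSS/HEPES/BSA, pH 7.4; percent activity versus reference antagonist fitted sigmoidally.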

Chain of human GPR17 short isoform (Q13304 29-367): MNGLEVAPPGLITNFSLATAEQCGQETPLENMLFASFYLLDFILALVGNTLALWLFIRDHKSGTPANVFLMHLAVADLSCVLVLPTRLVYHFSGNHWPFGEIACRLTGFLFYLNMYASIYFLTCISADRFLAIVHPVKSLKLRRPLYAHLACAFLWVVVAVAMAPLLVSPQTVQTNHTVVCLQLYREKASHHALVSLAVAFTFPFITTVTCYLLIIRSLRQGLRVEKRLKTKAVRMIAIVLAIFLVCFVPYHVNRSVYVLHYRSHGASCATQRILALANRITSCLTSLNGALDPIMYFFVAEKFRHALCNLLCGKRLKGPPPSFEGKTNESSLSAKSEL

`COc1nc(NS(=O)(=O)c2c[nH]c3c2ccc2cccnc23)nc(OC)c1CC(F)F` [Example 169, N-[5-(2,2-difluoroethyl)-4,6-dimethoxy-pyrimidin-2-yl]-1H-pyrrolo[3,2-h]quinoline-3-sulfonamide]: the IC50 amounted to 20 nM.

`COc1nc(NS(=O)(=O)c2c[nH]c3nc(Cl)ccc23)ncc1OCC(F)F` [Example 170, 6-chloro-N-[5-(2,2-difluoroethoxy)-4-methoxy-pyrimidin-2-yl]-1H-pyrrolo[2,3-b]pyridine-3-sulfonamide] registered an IC50 of 162 nM.

Consider `COc1nc(NS(=O)(=O)c2c[nH]c3nc(Cl)ccc23)nc(OC)c1OC(F)(F)CF` [Example 171, 6-chloro-N-[4,6-dimethoxy-5-(1,1,2-trifluoroethoxy)pyrimidin-2-yl]-1H-pyrrolo[2,3-b]pyridine-3-sulfonamide], for which the IC50 is 89 nM.

`COc1nc(NS(=O)(=O)c2c[nH]c3nc(Br)ccc23)nc(OC)c1OC(F)F` [Example 172, 6-bromo-N-[5-(difluoromethoxy)-4,6-dimethoxy-pyrimidin-2-yl]-1h-pyrrolo[2,3-b]pyridine-3-sulfonamide] showed an IC50 of 15 nM.

In turn, `COc1cnc(NS(=O)(=O)c2c[nH]c3cc(Cl)ccc23)nc1Cl` [Example 173, 6-chloro-N-(4-chloro-5-methoxy-pyrimidin-2-yl)-1H-indole-3-sulfonamide] showed an IC50 of 877 nM.

As for `COc1nc(NS(=O)(=O)c2c[nH]c3cc(Cl)ccc23)ncc1OCCCF` [Example 174, 6-chloro-N-[5-(3-fluoropropoxy)-4-methoxy-pyrimidin-2-yl]-1H-indole-3-sulfonamide], the IC50 was 484 nM.

As for `CC#CCOc1cnc(NS(=O)(=O)c2c[nH]c3cc(Cl)ccc23)nc1OC` [Example 175, N-(5-but-2-ynoxy-4-methoxy-pyrimidin-2-yl)-6-chloro-1H-indole-3-sulfonamide], the IC50 is 73 nM.

With `COc1nc(NS(=O)(=O)c2c[nH]c3cc(Cl)ccc23)ncc1CC(F)CF` (centres unmarked) [Example 176, 6-chloro-N-[5-(2,3-difluoropropyl)-4-methoxy-pyrimidin-2-yl]-1H-indole-3-sulfonamide], the IC50 was found to be 47 nM.

In turn, `COc1nc(NS(=O)(=O)c2c[nH]c3cc(Cl)ccc23)ncc1CC(F)(F)F` [Example 177, 6-chloro-N-[4-methoxy-5-(2,2,2-trifluoroethyl)pyrimidin-2-yl]-1H-indole-3-sulfonamide] registered an IC50 of 162 nM.

`COc1nc(NS(=O)(=O)c2c[nH]c3cc(Cl)ccc23)ncc1CCC(F)(F)F` [Example 178, 6-chloro-N-[4-methoxy-5-(3,3,3-trifluoropropyl)pyrimidin-2-yl]-1H-indole-3-sulfonamide]: the IC50 worked out at 108 nM. Against the preceding molecule, the IC50 is about 1.5-fold lower.

The molecule `COc1nc(NS(=O)(=O)c2c[nH]c3cc(Cl)ccc23)ncc1C#CC1COC1` [Example 180, 6-chloro-N-[4-methoxy-5-[2-(oxetan-3-yl)ethynyl]pyrimidin-2-yl]-1H-indole-3-sulfonamide] came in with an IC50 of 305 nM. This IC50 is about 2.8-fold higher than that of the molecule before.

Molecule `COc1nc(NS(=O)(=O)c2c[nH]c3cc(Cl)ccc23)ncc1CCC1COC1` [Example 181, 6-chloro-N-[4-methoxy-5-[2-(oxetan-3-yl)ethyl]pyrimidin-2-yl]-1H-indole-3-sulfonamide] came in with an IC50 of 16800 nM.

As for `COc1nc(NS(=O)(=O)c2c[nH]c3cc(C)ccc23)ncc1CC(F)F` [Example 182, N-[5-(2,2-difluoroethyl)-4-methoxy-pyrimidin-2-yl]-6-methyl-1H-indole-3-sulfonamide], the IC50 came to 101 nM.

Consider `COc1nc(NS(=O)(=O)c2c[nH]c3c(Br)c(Cl)ccc23)ncc1CCC(F)F` [Example 183, 7-bromo-6-chloro-N-[5-(3,3-difluoropropyl)-4-methoxy-pyrimidin-2-yl]-1H-indole-3-sulfonamide], for which the IC50 came to 23 nM.

As to `COc1nc(NS(=O)(=O)c2c[nH]c3c(C)c(Br)ccc23)ncc1CC(F)F` [Example 184, 6-bromo-N-[5-(2,2-difluoroethyl)-4-methoxy-pyrimidin-2-yl]-7-methyl-1H-indole-3-sulfonamide], the IC50 came to 29 nM.

`COc1nc(NS(=O)(=O)c2c[nH]c3cc(Cl)c(F)cc23)ncc1CC(F)F` [Example 185, 6-chloro-N-[5-(2,2-difluoroethyl)-4-methoxy-pyrimidin-2-yl]-5-fluoro-1H-indole-3-sulfonamide] returned an IC50 of 89 nM.

For `COc1nc(NS(=O)(=O)c2c[nH]c3c(OC)c(Cl)ccc23)ncc1CC(F)F` [Example 186, 6-chloro-N-[5-(2,2-difluoroethyl)-4-methoxy-pyrimidin-2-yl]-7-methoxy-1H-indole-3-sulfonamide], the IC50 worked out at 13 nM.

The molecule `COc1nc(NS(=O)(=O)c2c[nH]c3c(OC)c(Cl)ccc23)ncc1CCC(F)F` [Example 187, 6-chloro-N-[5-(3,3-difluoropropyl)-4-methoxy-pyrimidin-2-yl]-7-methoxy-1H-indole-3-sulfonamide] showed an IC50 of 18 nM.

`COc1nc(NS(=O)(=O)c2c[nH]c3c(OC(F)F)c(Cl)ccc23)ncc1CC(F)F` [Example 188, 6-chloro-N-[5-(2,2-difluoroethyl)-4-methoxy-pyrimidin-2-yl]-7-(difluoromethoxy)-1H-indole-3-sulfonamide] gave an IC50 of 28 nM. This IC50 lies about 1.6-fold higher than the previous one.

The molecule `COc1nc(NS(=O)(=O)c2c[nH]c3cc(Br)ccc23)ncc1OC(F)F` [Example 189, 6-bromo-N-[5-(difluoromethoxy)-4-methoxy-pyrimidin-2-yl]-1H-indole-3-sulfonamide] displayed an IC50 of 167 nM.

Turning to `COc1nc(NS(=O)(=O)c2c[nH]c3cc(C(F)(F)F)ccc23)ncc1CC(F)F` [Example 190, N-[5-(2,2-difluoroethyl)-4-methoxy-pyrimidin-2-yl]-6-(trifluoromethyl)-1H-indole-3-sulfonamide], the IC50 amounted to 106 nM.

Take `COc1nc(NS(=O)(=O)c2c[nH]c3c(F)c(Br)ccc23)ncc1CC(F)F` [Example 191, 6-bromo-N-[5-(2,2-difluoroethyl)-4-methoxy-pyrimidin-2-yl]-7-fluoro-1H-indole-3-sulfonamide]: the IC50 stood at 33 nM.

With `COc1nc(NS(=O)(=O)c2c[nH]c3c(C)c(Cl)ccc23)ncc1CC(F)F` [Example 192, 6-chloro-N-[5-(2,2-difluoroethyl)-4-methoxy-pyrimidin-2-yl]-7-methyl-1H-indole-3-sulfonamide], the IC50 worked out at 20 nM.

Consider `COc1nc(NS(=O)(=O)c2c[nH]c3nc(C(F)F)ccc23)nc(OC)c1CC(F)F` [Example 194, N-[5-(2,2-difluoroethyl)-4,6-dimethoxy-pyrimidin-2-yl]-6-(difluoromethyl)-1H-pyrrolo[2,3-b]pyridine-3-sulfonamide], for which the IC50 worked out at 25 nM. The IC50 values of the last two molecules are within 1.5-fold of each other.

For the molecule `COc1nc(NS(=O)(=O)c2c[nH]c3cc(C(F)F)ccc23)ncc1CC(F)F` [Example 195, N-[5-(2,2-difluoroethyl)-4-methoxy-pyrimidin-2-yl]-6-(difluoromethyl)-1H-indole-3-sulfonamide], the IC50 stood at 54 nM.

On to `COc1nc(NS(=O)(=O)c2c[nH]c3c(OC)c(Br)ccc23)ncc1CC(F)F` [Example 196, 6-bromo-N-[5-(2,2-difluoroethyl)-4-methoxy-pyrimidin-2-yl]-7-methoxy-1H-indole-3-sulfonamide], for which the IC50 is 16 nM.

`COc1nc(NS(=O)(=O)c2c[nH]c3cc(CC#N)ccc23)ncc1CC(F)F` [Example 197, 6-(cyanomethyl)-N-[5-(2,2-difluoroethyl)-4-methoxy-pyrimidin-2-yl]-1H-indole-3-sulfonamide] returned an IC50 of 981 nM.

In the case of `COc1nc(NS(=O)(=O)c2c[nH]c3c(OCF)c(Cl)ccc23)ncc1CC(F)F` [Example 198, 6-chloro-N-[5-(2,2-difluoroethyl)-4-methoxy-pyrimidin-2-yl]-7-(fluoromethoxy)-1H-indole-3-sulfonamide], the IC50 was found to be 36 nM.

Take `COc1nc(NS(=O)(=O)c2c[nH]c3c(SC(F)F)c(Cl)ccc23)ncc1CC(F)F` [Example 199, 6-chloro-N-[5-(2,2-difluoroethyl)-4-methoxy-pyrimidin-2-yl]-7-(difluoromethylsulfanyl)-1H-indole-3-sulfonamide]: the IC50 amounted to 8 nM. Against the preceding molecule, the IC50 is about 4.5-fold lower.

In turn, `COc1nc(NS(=O)(=O)c2c[nH]c3nc(Br)ccc23)ncc1CC(F)F` [Example 200, 6-bromo-N-[5-(2,2-difluoroethyl)-4-methoxy-pyrimidin-2-yl]-1H-pyrrolo[2,3-b]pyridine-3-sulfonamide] returned an IC50 of 66 nM.

As to `COc1nc(NS(=O)(=O)c2c[nH]c3nc(Br)ccc23)ncc1CCC(F)F` [Example 201, 6-bromo-N-[5-(3,3-difluoropropyl)-4-methoxy-pyrimidin-2-yl]-1H-pyrrolo[2,3-b]pyridine-3-sulfonamide], the IC50 came out at 30 nM.

With `COc1nc(NS(=O)(=O)c2c[nH]c3nc(Br)ccc23)nc(OC)c1OCC(F)F` [Example 202, 6-bromo-N-[5-(2,2-difluoroethoxy)-4,6-dimethoxy-pyrimidin-2-yl]-1H-pyrrolo[2,3-b]pyridine-3-sulfonamide], the IC50 came to 28 nM.

The molecule `COc1nc(NS(=O)(=O)c2c[nH]c3nc(Cl)ccc23)ncc1CC(F)F` [Example 203, 6-chloro-N-[5-(2,2-difluoroethyl)-4-methoxy-pyrimidin-2-yl]-1H-pyrrolo[2,3-b]pyridine-3-sulfonamide] returned an IC50 of 127 nM.

Molecule `COc1nc(NS(=O)(=O)c2c[nH]c3nc(Cl)ccc23)ncc1CCC(F)F` [Example 204, 6-chloro-N-[5-(3,3-difluoropropyl)-4-methoxy-pyrimidin-2-yl]-1H-pyrrolo[2,3-b]pyridine-3-sulfonamide] registered an IC50 of 29 nM.

Molecule `COc1nc(NS(=O)(=O)c2c[nH]c3nc(Cl)ccc23)nc(OC)c1OC(F)F` [Example 205, 6-chloro-N-[5-(difluoromethoxy)-4,6-dimethoxy-pyrimidin-2-yl]-1H-pyrrolo[2,3-b]pyridine-3-sulfonamide] registered an IC50 of 49 nM.
